Measurements: patent US20260101892A1, “METHOD TO INHIBIT PROLIFERATION OF A PHYTOPATHOGEN ON PLANTS AND COMPOSITIONS USED FOR THIS PURPOSE” (CYSBIO APS, priority 2022, published 2026)
Where two headings read alike, the source gives them in different places. Marks after values point to notes of the source that are not given here.

Tests used:
E. coli [1] = conditions: cited from earlier work; for Planktonic growth A600/min (×10^−3): LB medium, 30° C., 24 hours; for Planktonic growth Reduction (%): (compound − control) × 100 / control, negative = reduction; for biocidal effect: at the concentrations tested by Catto et al. (0.183-1830 μM)
E. coli [2] = conditions: cited from earlier work; for Cell adhesion Reduction (%): (compound − control) × 100 / control, negative = reduction; for anti-biofilm activity (cell adhesion): at the concentrations tested by Catto et al. (0.183-1830 μM); for concentrations at which anti-biofilm efficacy is shown: Catto et al., table 1
[3] = tested on: European grapes (Vitis vinifera); assay: Phytotoxicity evaluation in the grapevine downy mildew trial; conditions: 5% treatment, Example 9 trial
Alternaria alternata = assay: Post-harvest preservation of capsicums; assay type: in vivo; conditions: capsicums sprayed twice, 10° C., followed 25 days, triplicate
Procedure: To investigate if zosteric acid and/or coumaric acid can protect fruit and vegetables against post-harvest infection with different fungi, zosteric and coumaric acids fungicidal effect was tested in capsicums and lemons infected with Alternaria alternata and Penicillium digitatum, respectively. The tests were performed by acquiring the relevant fruit and vegetables from the local supermarket. Both fruit and vegetables were bought as organic produce to ensure a minimum of pesticides had already been applied. […] Each application treatment was performed in triplicate on three separate pieces of produce. After treatment, the produce was allowed to dry in a sterile laminar flow cabinet followed by a second round of application and drying. The produce was then inoculated with the relevant fungal spores using a grafting stick. […] The inoculated produce was subsequently placed in […] plastic bags to prevent contamination with other organisms and to prevent the produce from drying out due to air circulation in the incubator. The wrapped capsicums and lemons were placed at 10° C. and the fungal growth followed by measuring the diameter of the growth from the point of inoculation for 25 days.

## O=C(O)/C=C\c1ccc(OS(=O)(=O)O)cc1 [Cis zosteric acid, cis-zosteric acid]
E. coli [1]; 0.183 μM
  Planktonic growth A600/min (×10^−3): 1.31 ± 0.13^a A600/min (×10^−3)
  Planktonic growth Reduction (%): 2.28%
E. coli [1]; 1.83 μM
  Planktonic growth A600/min (×10^−3): 1.31 ± 0.01^a A600/min (×10^−3)
  Planktonic growth Reduction (%): 1.66%
E. coli [1]; 18.3 μM
  Planktonic growth A600/min (×10^−3): 1.31 ± 0.03^a A600/min (×10^−3)
  Planktonic growth Reduction (%): 2.24%
E. coli [1]; 183 μM
  Planktonic growth A600/min (×10^−3): 1.24 ± 0.03^a A600/min (×10^−3)
  Planktonic growth Reduction (%): −3.39%
E. coli [1]; 1830 μM
  Planktonic growth A600/min (×10^−3): 1.22 ± 0.03^a A600/min (×10^−3)
  Planktonic growth Reduction (%): −4.98%
E. coli [1]
  biocidal effect: no biocidal nor anti-biofilm activity
E. coli [2]; 0.183 μM
  Cell adhesion Reduction (%): 98.02%
  Cell adhesion N. adhered cells (×10^7): 3.79 ± 0.61^c ×10^7
E. coli [2]; 1.83 μM
  Cell adhesion Reduction (%): 92.49%
  Cell adhesion N. adhered cells (×10^7): 3.69 ± 0.41^c ×10^7
E. coli [2]; 18.3 μM
  Cell adhesion Reduction (%): 84.50%
  Cell adhesion N. adhered cells (×10^7): 3.54 ± 0.20^c ×10^7
E. coli [2]; 183 μM
  Cell adhesion Reduction (%): 9.90%
  Cell adhesion N. adhered cells (×10^7): 2.11 ± 0.14^bd ×10^7
E. coli [2]; 1830 μM
  Cell adhesion Reduction (%): 124.16%
  Cell adhesion N. adhered cells (×10^7): 4.30 ± 1.01^c ×10^7
E. coli [2]
  anti-biofilm activity (cell adhesion): no biocidal nor anti-biofilm activity
E. coli [2]; listed as cis-isomer of zosteric acid
  anti-biofilm activity (cell adhesion): no activity

## O=C(O)/C=C\c1ccccc1 [Cis-cinnamic acid, cis-cinnamic acid]
E. coli [1]; 0.183 μM
  Planktonic growth A600/min (×10^−3): 1.32 ± 0.04^ab A600/min (×10^−3)
  Planktonic growth Reduction (%): 2.71%
E. coli [1]; 1.83 μM
  Planktonic growth A600/min (×10^−3): 1.28 ± 0.07^ab A600/min (×10^−3)
  Planktonic growth Reduction (%): −0.56%
E. coli [1]; 18.3 μM
  Planktonic growth A600/min (×10^−3): 1.30 ± 0.03^ab A600/min (×10^−3)
  Planktonic growth Reduction (%): 1.27%
E. coli [1]; 183 μM
  Planktonic growth A600/min (×10^−3): 1.24 ± 0.05^a A600/min (×10^−3)
  Planktonic growth Reduction (%): −3.17%
E. coli [1]; 1830 μM
  Planktonic growth A600/min (×10^−3): 0.88 ± 0.02^c A600/min (×10^−3)
  Planktonic growth Reduction (%): −31.64%
E. coli [2]; 0.183 μM
  Cell adhesion Reduction (%): 28.52%
  Cell adhesion N. adhered cells (×10^7): 2.46 ± 0.17^b ×10^7
E. coli [2]; 1.83 μM
  Cell adhesion Reduction (%): 23.00%
  Cell adhesion N. adhered cells (×10^7): 2.36 ± 0.26^b ×10^7
E. coli [2]; 18.3 μM
  Cell adhesion Reduction (%): −29.61%
  Cell adhesion N. adhered cells (×10^7): 1.35 ± 0.28^b ×10^7
E. coli [2]; 183 μM
  Cell adhesion Reduction (%): 164.82%
  Cell adhesion N. adhered cells (×10^7): 5.08 ± 0.53^c ×10^7
E. coli [2]; 1830 μM
  Cell adhesion Reduction (%): 183.29%
  Cell adhesion N. adhered cells (×10^7): 5.43 ± 0.76^c ×10^7
E. coli [2]
  anti-biofilm activity (cell adhesion): promotes biofilm formation at all concentrations tested

## O=C(O)/C=C\c1ccc(O)cc1 [Cis-coumaric acid, cis-coumaric acid]
E. coli [1]; 0.183 μM
  Planktonic growth A600/min (×10^−3): 1.29 ± 0.07^a A600/min (×10^−3)
  Planktonic growth Reduction (%): 0.30%
E. coli [1]; 1.83 μM
  Planktonic growth A600/min (×10^−3): 1.27 ± 0.05^a A600/min (×10^−3)
  Planktonic growth Reduction (%): −0.88%
E. coli [1]; 18.3 μM
  Planktonic growth A600/min (×10^−3): 1.27 ± 0.04^a A600/min (×10^−3)
  Planktonic growth Reduction (%): −1.26%
E. coli [1]; 183 μM
  Planktonic growth A600/min (×10^−3): 1.28 ± 0.06^a A600/min (×10^−3)
  Planktonic growth Reduction (%): −0.16%
E. coli [1]; 1830 μM
  Planktonic growth A600/min (×10^−3): 1.25 ± 0.02^a A600/min (×10^−3)
  Planktonic growth Reduction (%): −2.25%
E. coli [1]
  biocidal effect: no biocidal activity
E. coli [2]; 0.183 μM
  Cell adhesion Reduction (%): −27.34%
  Cell adhesion N. adhered cells (×10^7): 1.39 ± 0.15^abc ×10^7
E. coli [2]; 1.83 μM
  Cell adhesion Reduction (%): −14.39%
  Cell adhesion N. adhered cells (×10^7): 1.64 ± 0.11^bc ×10^7
E. coli [2]; 18.3 μM
  Cell adhesion Reduction (%): −4.30%
  Cell adhesion N. adhered cells (×10^7): 1.83 ± 0.14^bc ×10^7
E. coli [2]; 183 μM
  Cell adhesion Reduction (%): −15.26%
  Cell adhesion N. adhered cells (×10^7): 1.62 ± 0.19^bc ×10^7
E. coli [2]; 1830 μM
  Cell adhesion Reduction (%): 184.36%
  Cell adhesion N. adhered cells (×10^7): 5.45 ± 1.00^e ×10^7
E. coli [2]
  anti-biofilm activity (cell adhesion): strongly reduced anti-biofilm activity

## O=C(O)/C=C/c1ccc(OS(=O)(=O)O)cc1 [Trans zosteric acid, trans-zosteric acid]
E. coli [1]; 0.183 μM
  Planktonic growth A600/min (×10^−3): 1.32 ± 0.06^a A600/min (×10^−3)
  Planktonic growth Reduction (%): 2.86%
E. coli [1]; 1.83 μM
  Planktonic growth A600/min (×10^−3): 1.31 ± 0.04^a A600/min (×10^−3)
  Planktonic growth Reduction (%): 1.76%
E. coli [1]; 18.3 μM
  Planktonic growth A600/min (×10^−3): 1.29 ± 0.04^a A600/min (×10^−3)
  Planktonic growth Reduction (%): 0.11%
E. coli [1]; 183 μM
  Planktonic growth A600/min (×10^−3): 1.30 ± 0.04^a A600/min (×10^−3)
  Planktonic growth Reduction (%): 1.07%
E. coli [1]; 1830 μM
  Planktonic growth A600/min (×10^−3): 1.30 ± 0.04^a A600/min (×10^−3)
  Planktonic growth Reduction (%): 1.21%
E. coli [1]
  biocidal effect: no biocidal effect
E. coli [2]; 0.183 μM
  Cell adhesion Reduction (%): 44.59%
  Cell adhesion N. adhered cells (×10^7): 2.77 ± 0.17^d ×10^7
E. coli [2]; 1.83 μM
  Cell adhesion Reduction (%): −19.76%
  Cell adhesion N. adhered cells (×10^7): 1.54 ± 0.29^c ×10^7
E. coli [2]; 18.3 μM
  Cell adhesion Reduction (%): −19.34%
  Cell adhesion N. adhered cells (×10^7): 1.55 ± 0.19^c ×10^7
E. coli [2]; 183 μM
  Cell adhesion Reduction (%): −27.67%
  Cell adhesion N. adhered cells (×10^7): 1.39 ± 0.13^c ×10^7
E. coli [2]; 1830 μM
  Cell adhesion Reduction (%): −70.56%
  Cell adhesion N. adhered cells (×10^7): 0.56 ± 0.12^a ×10^7
E. coli [2]
  concentrations at which anti-biofilm efficacy is shown: > 1.83 µM
E. coli [2]; listed as trans-isomer of zosteric acid
  anti-biofilm activity (cell adhesion): highly effective

## O=C(O)/C=C/c1ccccc1 [Trans-cinnamic acid, trans-cinnamic acid]
E. coli [1]; 0.183 μM
  Planktonic growth A600/min (×10^−3): 1.24 ± 0.04^abcd A600/min (×10^−3)
  Planktonic growth Reduction (%): −3.32%
E. coli [1]; 1.83 μM
  Planktonic growth A600/min (×10^−3): 1.22 ± 0.01^abcdf A600/min (×10^−3)
  Planktonic growth Reduction (%): −4.74%
E. coli [1]; 18.3 μM
  Planktonic growth A600/min (×10^−3): 1.19 ± 0.04^bcdef A600/min (×10^−3)
  Planktonic growth Reduction (%): −7.58%
E. coli [1]; 183 μM
  Planktonic growth A600/min (×10^−3): 1.14 ± 0.05^def A600/min (×10^−3)
  Planktonic growth Reduction (%): −11.37%
E. coli [1]; 1830 μM
  Planktonic growth A600/min (×10^−3): 0.83 ± 0.02^h A600/min (×10^−3)
  Planktonic growth Reduction (%): −35.10%
E. coli [2]; 0.183 μM
  Cell adhesion Reduction (%): −34.95%
  Cell adhesion N. adhered cells (×10^7): 1.25 ± 0.43^cdef ×10^7
E. coli [2]; 1.83 μM
  Cell adhesion Reduction (%): −38.77%
  Cell adhesion N. adhered cells (×10^7): 1.17 ± 0.17^cdf ×10^7
E. coli [2]; 18.3 μM
  Cell adhesion Reduction (%): −7.37%
  Cell adhesion N. adhered cells (×10^7): 1.78 ± 0.10^bcef ×10^7
E. coli [2]; 183 μM
  Cell adhesion Reduction (%): −25.03%
  Cell adhesion N. adhered cells (×10^7): 1.44 ± 0.15^bcdef ×10^7
E. coli [2]; 1830 μM
  Cell adhesion Reduction (%): −31.11%
  Cell adhesion N. adhered cells (×10^7): 1.32 ± 0.28^cdef ×10^7
E. coli [2]
  concentrations at which anti-biofilm efficacy is shown: > 0.183 µM

## O=C(O)/C=C/c1ccc(O)cc1 [Trans-coumaric acid, trans-coumaric acid]
E. coli [1]; 0.183 μM
  Planktonic growth A600/min (×10^−3): 1.31 ± 0.03ab A600/min (×10^−3)
  Planktonic growth Reduction (%): 2.06%
E. coli [1]; 1.83 μM
  Planktonic growth A600/min (×10^−3): 1.26 ± 0.04abc A600/min (×10^−3)
  Planktonic growth Reduction (%): −1.72%
E. coli [1]; 18.3 μM
  Planktonic growth A600/min (×10^−3): 1.23 ± 0.02abc A600/min (×10^−3)
  Planktonic growth Reduction (%): −3.99%
E. coli [1]; 183 μM
  Planktonic growth A600/min (×10^−3): 1.23 ± 0.06abc A600/min (×10^−3)
  Planktonic growth Reduction (%): −3.87%
E. coli [1]; 1830 μM
  Planktonic growth A600/min (×10^−3): 0.97 ± 0.04e A600/min (×10^−3)
  Planktonic growth Reduction (%): −24.17%
E. coli [1]
  biocidal effect: displays both biocidal and antibiofilm effect
E. coli [2]; 0.183 μM
  Cell adhesion Reduction (%): 19.37%
  Cell adhesion N. adhered cells (×10^7): 2.29 ± 0.16b ×10^7
E. coli [2]; 1.83 μM
  Cell adhesion Reduction (%): −46.05%
  Cell adhesion N. adhered cells (×10^7): 1.03 ± 0.14ce ×10^7
E. coli [2]; 18.3 μM
  Cell adhesion Reduction (%): −25.80%
  Cell adhesion N. adhered cells (×10^7): 1.42 ± 0.24de ×10^7
E. coli [2]; 183 μM
  Cell adhesion Reduction (%): −22.36%
  Cell adhesion N. adhered cells (×10^7): 1.49 ± 0.14de ×10^7
E. coli [2]; 1830 μM
  Cell adhesion Reduction (%): −36.38%
  Cell adhesion N. adhered cells (×10^7): 1.22 ± 0.27cde ×10^7
E. coli [2]
  anti-biofilm activity (cell adhesion): displays both biocidal and antibiofilm effect

## O=C(O)/C=C/c1ccc(O)cc1 [coumaric acid]
[3]
  phytotoxicity: 23.5%
Alternaria alternata
  time after inoculation until A. alternata growth was displayed: 25 days
